Assay results published in patent US20110152166A1, “METHOD OF MODULATION OF PROTEIN PHOSPHORYLATION-DEPENDENT CONFORMATIONAL TRANSITIONS WITH LOW MOLECULAR WEIGHT COMPOUNDS” (priority 2006, published 2011).
Ends that are not written are not given here.

Assays:
Type in all cases: biochemical
PKA = target: T1, PKA (Homo sapiens, UniProt P17612); assay: AGC kinase panel activity assay (Kemptide); settings: for PKA (%) activity: 1% DMSO = 100%
T1 construct: purchased Sigma
Method: (§1) Protein kinase activity tests were performed essentially as previously described (Balendran et al., 2000; Biondi et al., 2000; Biondi et al., 2001). Substrates used were either MBP (for PKCζ or polypeptides (Crosstide for PKB, S6K, SGK and PRK2; T308tide for PDK1, and Kemptide for PKA). PKA (Sigma) was measured in the presence of 100 μM cAMP. Alternatively, assays were performed in a 96 well format, aliquots spotted on p81 phosphocellulose papers (Whatmann), washed in 0.01% phosphoric acid, dried, and then exposed and analysed using Phospholmager technology (Storm, Molecular Dynamics). Activity measurements were performed in duplicates with less than 10% difference between duplicate pairs. Experiments were repeated at least twice, although most of the experiments were repeated multiple times, with similar results.
Activity assays for each kinase were performed as described in Materials and Methods in the presence of 1% DMSO (100%). Except PKA, all protein kinases were produced as a GST-fusion. S6K1, PKBα, SGK mutants used were S6K1-T2-[Thr412Glu], PKBa[Ser473Asp] and ΔN-SGK[Ser422Asp].

PDK1 [Phe224Trp] = target: T2, PDK1 [Phe224Trp] (Homo sapiens, UniProt O15530, F224W); assay: PDK1 activity assay with T308tide; settings: catalytic domain 50-360
T2 construct: the catalytic domain of PDK1 (50-359) produced in SF9 insect cells; His-tag (N, cleaved yes); made in house; host or cells: insect cells (baculovirus)
Method: (§2) FIG. 6—A mutation at Thr226 in PDK1 uncouples the ligand binding to the HM/PIF-pocket from activation of the kinase. The catalytic domain (CD) of PDK1 50-360 and its mutants Phe224Trp and Thr226Trp were expressed in insect cells and purified. (A) PDK1 activity was measured in the presence or absence of the HM-polypeptide PIFtide or compound 1 using T308tide as a substrate. PDK1 CD wt and PDK1 [Phe224Trp] were activated by PIFtide and compound 1 whereas PDK1 CD [Thr226Trp] mutant was not activated. (B,C,D,E) PDK1 [Phe224Trp] and PDK1 [Thr226Trp] retain significant binding to P-HM polypeptides and PIFtide. Surface plasmon resonance measurements were carried out on a BiaCore system to evaluate the binding affinities of PDK1 CD wt, PDK1 [Phe224Trp] and PDK1 [Thr226Trp] to HM-polypeptides. Biotin-P-HM-polypeptide derived from S6K1 was immobilized on a streptavidin-coated sensor chip and the specific interaction with PDK1 was recorded. (B) The direct binding of PDK1 CD wt to biotin-P-HM-S6K was recorded at the indicated concentrations of PDK1 CD. The Kd (0.05 μM) was estimated based on the response units obtained at each concentration at equilibrium (insert).
as §1
(§3) PDK1 activity assay was performed in a 20 μl mix containing 50 mM Tris-HCl pH 7.5, 0.05 mg/ml BSA, 0.1% β-mercaptoethanol, 10 mM MgCl2, 100 μM [γ^32P]ATP (5-50 cpm/pmol), 0.003% Brij, 150 ng PDK1, and T308tide (from 0.05 to 1 mM). PDK1 specific activity was approximately 5 U/mg (when measured at 1 mM T308tide). The effect of small compounds on PDK1 was repeated with proteins from different purification batches and with different protein constructs, comprising the full length protein or the catalytic domain alone, with similar results. […] This variability may be due to the PIFtide/compound-stimulated autophosphorylation of the activation loop in certain preparations having less than a 1:1 molar phosphorylation stoichiometry at this site.

PDK1 [Thr226Trp] = target: T3, PDK1 [Thr226Trp] (Homo sapiens, UniProt O15530, T226W); assay: PDK1 activity assay with T308tide; settings: catalytic domain 50-360
T3 construct: the catalytic domain of PDK1 (50-359) produced in SF9 insect cells; His-tag (N, cleaved yes); made in house; host or cells: insect cells (baculovirus)
Method: as §2, §1, §3

T3 sequence (O15530 50-359 T226W): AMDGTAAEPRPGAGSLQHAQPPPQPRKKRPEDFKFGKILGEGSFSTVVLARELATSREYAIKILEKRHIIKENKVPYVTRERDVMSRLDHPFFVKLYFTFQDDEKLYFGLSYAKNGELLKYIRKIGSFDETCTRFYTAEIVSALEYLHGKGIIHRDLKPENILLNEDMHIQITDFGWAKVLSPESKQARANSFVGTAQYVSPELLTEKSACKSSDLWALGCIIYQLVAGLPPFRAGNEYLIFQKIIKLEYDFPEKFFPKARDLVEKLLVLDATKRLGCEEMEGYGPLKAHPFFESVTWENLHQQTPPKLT
T2 sequence (O15530 50-359 F224W): as the sequence (O15530 50-359 T226W) above, with F175W, W177T counted along it

Compound | effect on PKA activity (in words) (PKA; 20 μM) | PKA (%) activity (PKA; 20 μM compound) [%] | PKA (%) activity (PKA; 200 μM compound) [%] | activation of PDK1 [Phe224Trp] (in words) (PDK1 [Phe224Trp]) | activation of PDK1 [Thr226Trp] (in words) (PDK1 [Thr226Trp])
O=C(O)CSC(CC(=O)c1ccc(Cl)cc1)c1ccccc1 (stereo not drawn) [Compound 1] | no significant effect | 100 | 94 | activated | not activated
COC(=O)CSC(CC(=O)c1ccc(Cl)cc1)c1ccccc1 (stereo not drawn) [Compound 2] |  | 109 | 103 |  | 
REPRILSEEEQEMFRDFDYIADWC [PIFtide, reference compound] |  |  |  | activated | not activated
